What was measured:
[1] = test system: DU-145; test: Cytotoxicity against human DU-145 cells assessed as reduction in cell viability measured after 72 hrs by SRB assay; type: functional, cell-based; settings: DU-145, 72 h
[2] = test system: PC-3; test: Cytotoxicity against human PC-3 cells assessed as reduction in cell viability measured after 72 hrs by SRB assay; type: functional, cell-based; settings: PC-3, 72 h
[3] = test system: NCI-H460; test: Cytotoxicity against human NCI-H460 cells assessed as reduction in cell viability measured after 72 hrs by SRB assay; type: functional, cell-based; settings: NCI-H460, 72 h
[4] = test system: HCT-116; test: Cytotoxicity against human HCT-116 cells assessed as reduction in cell viability measured after 72 hrs by SRB assay; type: functional, cell-based; settings: HCT-116, 72 h
[5] = test system: UMUC3; test: Cytotoxicity against human UMUC3 cells assessed as reduction in cell viability measured after 72 hrs by SRB assay; type: functional, cell-based; settings: UMUC3, 72 h
[6] = test system: MCF7; test: Cytotoxicity against human MCF7 cells assessed as reduction in cell viability measured after 72 hrs by SRB assay; type: functional, cell-based; settings: MCF7, 72 h
[7] = test system: MDA-MB-231; test: Cytotoxicity against human MDA-MB-231 cells assessed as reduction in cell viability measured after 72 hrs by SRB assay; type: functional, cell-based; settings: MDA-MB-231, 72 h
[8] = test system: PANC-1; test: Cytotoxicity against human PANC-1 cells assessed as reduction in cell viability measured after 72 hrs by SRB assay; type: functional, cell-based; settings: PANC-1, 72 h
[9] = test system: MIA PaCa-2; test: Cytotoxicity against human MIA PaCa-2 cells assessed as reduction in cell viability measured after 72 hrs by SRB assay; type: functional, cell-based; settings: MIA PaCa-2, 72 h
[10] = test system: ASPC1; test: Cytotoxicity against human ASPC1 cells assessed as reduction in cell viability measured after 72 hrs by SRB assay; type: functional, cell-based; settings: ASPC1, 72 h
[11] = test system: W256; test: Antitumour activity against Walker 256 adenocarcinoma cells implanted in Wistar rat assessed as increase in animal survival rate by measuring T/C ratio at 2.5 mg/kg, ip qd for 3 days administered on day 3,4,5 after tumor cell transplantation; type: functional; settings: time 3 day
[12] = test system: DU-145; test: Antitumour activity against human DU-145 cells xenografted in Crl:Nu-Foxnl nu mouse assessed as inhibition of tumour growth at total effective dose of 16 mg/kg, iv measured on day 35; type: functional; settings: DU-145, iv, 840 h, time 35 day, read-out: TGI
[13] = test system: DU-145; test: Antitumour activity against human DU-145 cells xenografted in Crl:Nu-Foxnl nu mouse assessed as inhibition of tumour growth at total effective dose of 8 mg/kg, iv measured on day 64; type: functional; settings: DU-145, iv, 1536 h, time 64 day, read-out: TGI
[14] = test system: HCT-116; test: Antitumour activity against human HCT-116 cells xenografted in Crl:Nu-Foxnl nu mouse assessed as inhibition of tumour growth at total effective dose of 18 mg/kg, ip measured on day 14; type: functional; settings: HCT-116, ip, 336 h, time 14 day, read-out: TGI
[15] = test system: HCT-116; test: Antitumour activity against human HCT-116 cells xenografted in Crl:Nu-Foxnl nu mouse assessed as inhibition of tumour growth at total effective dose of 24 mg/kg, iv measured on day 30; type: functional; settings: HCT-116, iv, 720 h, time 30 day, read-out: TGI
[16] = test system: NCI-H460; test: Antitumour activity against human NCI-H460 cells xenografted in Crl:Nu-Foxnl nu mouse assessed as inhibition of tumour growth at total effective dose of 48 mg/kg, iv measured on day 23; type: functional; settings: 552 h, time 23 day, read-out: TGI
[17] = test system: Quadruplex DNA; test: Stabilization of 5'-FAM/3'-TAMRA labeled c-Myc promoter G4 quadruplex DNA FPu18 (unknown origin) assessed as change in melting temperature at 10 microM measured after 15 mins by FRET assay; type: nucleic-acid assay
[18] = test system: Quadruplex DNA; test: Stabilization of 5'-FAM/3'-TAMRA labeled telomeric G4 quadruplex DNA F21T (unknown origin) assessed as change in melting temperature at 10 microM measured after 15 mins by FRET assay; type: nucleic-acid assay
[19] = test system: Quadruplex DNA; test: Stabilization of 5'-FAM/3'-TAMRA labeled K-Ras G4 quadruplex DNA (unknown origin) assessed as change in melting temperature at 10 microM measured after 15 mins by FRET assay; type: nucleic-acid assay
[20] = Stabilization of ds 5'-FAM-d(TATAGCTATA-HEG-TATAGCTATA)-TAMRA-3' (unknown origin) assessed as change in melting temperature at 10 microM measured after 15 mins by FRET assay; settings: Homo sapiens
[21] = test system: HT-29; test: Cytotoxicity against human HT-29 cells assessed as reduction in cell viability measured after 72 hrs by SRB assay; type: functional, cell-based; settings: HT-29, 72 h
[22] = test system: BXPC-3; test: Cytotoxicity against human BXPC-3 cells assessed as reduction in cell viability measured after 72 hrs by SRB assay; type: functional, cell-based; settings: BXPC-3, 72 h
[23] = test system: Capan-2; test: Cytotoxicity against human Capan-2 cells assessed as reduction in cell viability measured after 72 hrs by SRB assay; type: functional, cell-based; settings: Capan-2, 72 h
[24] = test system: PANC-1; test: Antitumour activity against human PANC-1 cells xenografted in Crl:Nu-Foxnl nu mouse assessed as inhibition of tumour growth at total effective dose of 160 mg/kg, iv measured on day 26; type: functional; settings: PANC-1, iv, 624 h, time 26 day, read-out: TGI
[25] = test system: HCT-116; test: Antitumour activity against human HCT-116 cells xenografted in Crl:Nu-Foxnl nu mouse assessed as inhibition of tumour growth at total effective dose of 120 mg/kg, iv measured on day 15; type: functional; settings: HCT-116, iv, 360 h, time 15 day, read-out: TGI
[26] = test system: MDA-MB-231; test: Antitumour activity against human MDA-MB-231 cells xenografted in Crl:Nu-Foxnl nu mouse assessed as inhibition of tumour growth at total effective dose of 40 mg/kg, iv measured on day 39; type: functional; settings: MDA-MB-231, iv, 936 h, time 39 day, read-out: TGI
[27] = test system: W256; test: Antitumour activity against Walker 256 adenocarcinoma cells implanted in Wistar rat assessed as increase in animal survival rate by measuring T/C ratio at 0.65 mg/kg, ip qd for 3 days administered on day 3,4,5 after tumor cell transplantation; type: functional; settings: time 3 day
[28] = test system: NCI-H460; test: Antitumour activity against human NCI-H460 cells xenografted in Crl:Nu-Foxnl nu mouse assessed as inhibition of tumour growth at total effective dose of 5 mg/kg, iv measured on day 15; type: functional; settings: 360 h, time 15 day, read-out: TGI
[29] = test system: NCI-H460; test: Antitumour activity against human NCI-H460 cells xenografted in Crl:Nu-Foxnl nu mouse assessed as inhibition of tumour growth at total effective dose of 16 mg/kg, iv measured on day 14; type: functional; settings: 336 h, time 14 day, read-out: TGI
[30] = test system: PANC-1; test: Antitumour activity against human PANC-1 cells xenografted in Crl:Nu-Foxnl nu mouse assessed as inhibition of tumour growth at total effective dose of 10 mg/kg, iv measured on day 45; type: functional; settings: PANC-1, iv, 1080 h, time 45 day, read-out: TGI
[31] = test system: PANC-1; test: Antitumour activity against human PANC-1 cells xenografted in Crl:Nu-Foxnl nu mouse assessed as inhibition of tumour growth at total effective dose of 8 mg/kg, iv measured on day 32; type: functional; settings: PANC-1, iv, 768 h, time 32 day, read-out: TGI
[32] = test system: MIA PaCa-2; test: Antitumour activity against human MIA PaCa-2 cells xenografted in Crl:Nu-Foxnl nu mouse assessed as inhibition of tumour growth at total effective dose of 16 mg/kg, iv measured on day 26; type: functional; settings: MIA PaCa-2, iv, 624 h, time 26 day, read-out: TGI
[33] = test system: UMUC3; test: Antitumour activity against human UMUC3 cells xenografted in Crl:Nu-Foxnl nu mouse assessed as inhibition of tumour growth at total effective dose of 28 mg/kg, iv measured on day 23; type: functional; settings: 552 h, time 23 day, read-out: TGI
[34] = test system: PANC-1; test: Antitumour activity against human PANC-1 cells xenografted in Crl:Nu-Foxnl nu mouse assessed as inhibition of tumour growth at total effective dose of 10 mg/kg, iv measured on day 31; type: functional; settings: PANC-1, iv, 744 h, time 31 day, read-out: TGI
[35] = test system: PANC-1; test: Antitumour activity against human PANC-1 cells xenografted in Crl:Nu-Foxnl nu mouse assessed as inhibition of tumour growth at total effective dose of 36 mg/kg, iv measured on day 45; type: functional; settings: PANC-1, iv, 1080 h, time 45 day, read-out: TGI
[36] = test system: PANC-1; test: Antitumour activity against human PANC-1 cells xenografted in Crl:Nu-Foxnl nu mouse assessed as inhibition of tumour growth at total effective dose of 20 mg/kg, iv measured on day 36; type: functional; settings: PANC-1, iv, 864 h, time 36 day, read-out: TGI
[37] = test system: PANC-1; test: Antitumour activity against human PANC-1 cells xenografted in Crl:Nu-Foxnl nu mouse assessed as inhibition of tumour growth at total effective dose of 16 mg/kg, iv measured on day 40; type: functional; settings: PANC-1, iv, 960 h, time 40 day, read-out: TGI
[38] = test system: MIA PaCa-2; test: Antitumour activity against human MIA PaCa-2 cells xenografted in Crl:Nu-Foxnl nu mouse assessed as inhibition of tumour growth at total effective dose of 42 mg/kg, iv measured on day 26; type: functional; settings: MIA PaCa-2, iv, 624 h, time 26 day, read-out: TGI
[39] = test system: MIA PaCa-2; test: Antitumour activity against human MIA PaCa-2 cells xenografted in Crl:Nu-Foxnl nu mouse assessed as inhibition of tumour growth at total effective dose of 8 mg/kg, ip measured on day 15; type: functional; settings: MIA PaCa-2, ip, 360 h, time 15 day, read-out: TGI
[40] = test system: BXPC-3; test: Antitumour activity against human BXPC-3 cells xenografted in Crl:Nu-Foxnl nu mouse assessed as inhibition of tumour growth at total effective dose of 30 mg/kg, iv measured on day 37; type: functional; settings: BXPC-3, iv, 888 h, time 37 day, read-out: TGI

| SMILES | IC50 [1] | IC50 [2] | IC50 [3] | IC50 [4] | IC50 [5] | IC50 [6] | IC50 [7] | IC50 [8] | IC50 [9] | IC50 [10] | ΔTm [17] | ΔTm [18] | ΔTm [19] | ΔTm [20] | IC50 [21] | IC50 [22] | IC50 [23] | other results |
| --- | --- | --- | --- | --- | --- | --- | --- | --- | --- | --- | --- | --- | --- | --- | --- | --- | --- | --- |
| O=c1c2ccccc2[nH]c2c([N+](=O)[O-])ccc(NCCCN3CCN(CCCNc4c5ccccc5nc5cccc([N+](=O)[O-])c45)CC3)c12 | 11 nM | 26 nM | 9 nM | 20 nM | 17 nM | 77 nM | 28 nM | 56 nM | 28 nM | 78 nM | 23.7 °C | 8.5 °C | 25.1 °C | 3.2 °C |  |  |  | T/C [11]: 400%; inhibition in vivo at 16 mg/kg [12]: 77%; inhibition in vivo at 8 mg/kg [13]: 81%; inhibition in vivo at 18 mg/kg [14]: 52%; inhibition in vivo at 24 mg/kg [15]: 34%; inhibition in vivo at 48 mg/kg [16]: 60% |
| Cc1ccc([N+](=O)[O-])c2c(NCCCN3CCN(CCCNc4ccc5ncn6c7ccc(O)cc7c(=O)c4c56)CC3)c3ccccc3nc12 | 67 nM | 130 nM | 74 nM | 51 nM | 35 nM | 244 nM | 17 nM | 42 nM | 38 nM | 343 nM | 21.3 °C | 16.4 °C | 18.8 °C | 4.4 °C | 237 nM | 354 nM | 68 nM | inhibition in vivo at 160 mg/kg [24]: 61%; inhibition in vivo at 120 mg/kg [25]: 4%; inhibition in vivo at 40 mg/kg [26]: 12% |
| CN(CCCNc1c2ccccc2nc2cccc([N+](=O)[O-])c12)CCCNc1ccc([N+](=O)[O-])c2[nH]c3ccccc3c(=O)c12 | 24 nM | 51 nM | 10 nM | 260 nM | 29 nM | 695 nM | 28 nM | 28 nM | 103 nM | 66 nM | 19.4 °C | 24.5 °C | 27.4 °C |  | 67 nM |  |  | T/C [27]: 450%; inhibition in vivo at 5 mg/kg [28]: 14%; inhibition in vivo at 16 mg/kg [29]: 35%; inhibition in vivo at 10 mg/kg [30]: 23% |
| O=c1c2cc(O)ccc2n2cnc3ccc(NCCCN4CCN(CCCNc5c6ccccc6nc6cccc([N+](=O)[O-])c56)CC4)c1c32 | 20 nM | 35 nM | 17 nM | 20 nM | 18 nM | 62 nM | 19 nM | 24 nM | 21 nM | 191 nM | 28.5 °C | 9.2 °C | 22.3 °C | 3.8 °C | 81 nM | 164 nM | 43 nM | inhibition in vivo at 8 mg/kg [31]: 51%; inhibition in vivo at 16 mg/kg [32]: 29%; inhibition in vivo at 28 mg/kg [33]: 47%; inhibition in vivo at 10 mg/kg [34]: 71%; inhibition in vivo at 36 mg/kg [35]: 90%; inhibition in vivo at 20 mg/kg [36]: 59%; inhibition in vivo at 16 mg/kg [37]: 82%; inhibition in vivo at 42 mg/kg [38]: 50%; inhibition in vivo at 8 mg/kg [39]: 51%; inhibition in vivo at 30 mg/kg [40]: 64% |
